# Test results as given in a melting point compilation (Tetko et al.; mined from patent text by program, amines drawn as free bases though some values may be those of a salt).
row,Compound,melting point [°C]
1,CO/C=C(/C(=O)OC)c1ccccc1COc1nc(C(F)(F)F)sc1C,59
2,O=C(OCC1OC(n2cc(I)c(=O)[nH]c2=O)C(F)C1OC(=O)c1ccccc1)c1ccccc1 (centres undefined),197
3,Cn1ccc2ccc(OCc3ccccc3)cc21,79
4,CN(c1cccc2cc(C3=NCC(CN4CCS(=O)CC4)S3)[nH]c12)S(=O)(=O)c1cccs1 (centres undefined),204
5,O=C(O)c1cc(OCC(F)(F)F)cc(Oc2cccc(C(F)(F)F)c2)n1,93 to 95
6,COc1ccc2nc(COc3ccc4c(c3)C(SCCC(=O)O)c3ccccc3CO4)ccc2c1 (centres undefined),174 to 175
7,Cn1cnnc1C(c1ccc(I)cc1)c1cc2c3c(c1)c(-c1cccc(Cl)c1)cc(=O)n3CC2 (centres undefined),194
8,O=C(CCl)c1ncccn1,73 to 80
9,COc1ccc(OCc2ccccc2)c(C(=O)C=Cc2cccc([N+](=O)[O-])c2)c1,108 to 110
10,O=P(CN(O)CP(=O)(OCc1ccccc1)OCc1ccccc1)(OCc1ccccc1)OCc1ccccc1,71 to 73
11,CCOC(=O)C1=C(C)NC(SCc2ccc(OC)cc2)=NC1c1cccc([N+](=O)[O-])c1Cl (centres undefined),155 to 157
12,CCOC(=O)C1(O)CSC(O)(C(=O)OCC)CS1 (centres undefined),139 to 143
13,Oc1cc2c3ccc(O)c(O)c3n(Cc3ccc(Br)cc3)c2cc1O,249 to 252
14,O=S1(=O)CCN2C=CC=C(c3ccc(Oc4ccc(Cl)cc4)cc3)C2=N1,232 to 234
15,O=c1ccc(S(=O)(=O)c2cc3cccc(Cl)c3[nH]2)n[nH]1,248 to 250
16,Nc1ccc2c(c1)c(=O)oc1cccc(O)c12,> 260
17,CN1CCC(C(=O)Nc2ccc(CN(C)C3CCOCC3)cc2)=Cc2cc(-c3ccc(N4CCCCC4)cc3)ccc21,202 to 204
18,Cc1ccc(-c2cc([Si](C)(C)C)oc2-c2ccc(Cl)cc2)cc1,80 to 84
19,O=c1n(CCCC2CCCC2)ccn1-c1ccc([N+](=O)[O-])cc1,105 to 107
20,C[Si](C)(C)c1ccc(C(=O)Nc2nnn[nH]2)o1,247 to 248

row,Compound,melting point [°C]
1,N=C(N)Nc1nc2cc(Cl)cc(Cl)c2[nH]1,264 to 265
2,CC(=O)OC[C@@](O)(c1ccc(F)cc1F)[C@H](C)c1ccncn1,102 to 104
3,CCCn1nc2c(N)nc3ccccc3c2c1CC(C)(C)NC(C)=O,182 to 183
4,CSc1nc(-c2ccccn2)n(-c2ccc(C)cc2)c(=O)c1C#N,247 to 248
5,CCCc1c2oc(C(N)=O)cc(=O)c2cc2c(=O)cc(C(=O)OCC)oc12,229 to 231
6,N=C(N)Nc1nc2cc(Cl)c(Cl)cc2[nH]1,> 260
7,COc1cccc(NC(=O)NC2N=C(c3ccc(C)cc3)c3ccccc3N(C)C2=O)c1 (centres undefined),240 to 242
8,COc1ccc(Cl)cc1-n1c(N)nnc1-c1ccc(C(F)(F)F)cc1,247 to 248
9,COc1ccc(OC)c2c1CC1OC1C2 (centres undefined),130 to 132
10,COc1sc(-c2cc[nH]n2)c2c1C(=O)CC(C)(C)C2,202 to 204
11,CC(C)(C)c1cc(C(=O)ON(Cc2ccccc2)Cc2ccccc2)cc(C(C)(C)C)c1O,90 to 92
12,CC(O)=C(C#N)C(=O)Nc1ccc([N+](=O)[O-])c(C)c1,231 to 233
13,CCCc1nc2c(N)nc(C)c(C)c2n1CCCC(C)=O,148 to 150
14,CN(C)c1cc(CC(C#N)=CNc2ccccc2)cc(N(C)C)c1Cl,168
15,CCCc1ccc(CCCC(P(=O)(O)O)P(=O)(O)O)cc1,200 to 202
16,CCOC(=O)c1cc2ccccc2n1Cc1ccc(Cl)cc1,107 to 108
17,O=C1CCC(N2C(=O)c3cccc(OCc4ccc(CN5CCN(c6ccc(F)cc6)CC5)cc4)c3C2=O)C(=O)N1 (centres undefined),135 to 137
18,COC(=O)c1cn2c(n1)COc1ccc([N+](=O)[O-])cc1-2,270 to 272
19,Nc1cc(-c2nnc(SCc3cccc(F)c3)o2)ccn1,175 to 176
